Laboratory results: patent US9156816B2 (priority 2010, dated 2015)

Tests used:
Pythium aphanidermatum = assay: Antimicrobial test (mycelia growth inhibition); type: cell-based; settings: compound concentration of 1 ppm, PSY medium, 25° C., days 3 to 7 of culturing, read-out: mycelia growth inhibition rate
Description: The compound according to the present invention was dissolved in dimethylsulfoxide and diluted to double the prescribed concentration in a 96-well microplate using PSY medium to obtain a drug solution. On the other hand, a diluted dimethylsulfoxide solution was prepared using PSY medium for use as an untreated group.
A suspension of liquid-cultured test microorganisms (Pythium aphanidermatum) was mixed with an equal volume of the drug solution and cultured in a dark location at 25° C. Mycelia growth was observed on days 3 to 7 of culturing to determine mycelia growth inhibition rates.

[1] = test system: tomato late blight pathogen (Phytophthora infestans); assay: whole plant or invertebrate; type: in vivo; settings: 96 h, read-out: control value
Pythium ultimum = assay: Cucumber damping-off (PU) control test; type: in vivo; settings: Globisporangium ultimum, 168 h, soil irrigated with 30 ml emulsion at active ingredient concentration of 100 ppm, ratio of healthy seedlings on day 7 after planting vs untreated group
Description: 40 ml of sterile soil were placed in plastic cups followed by leveling the surface of the soil. The soil was then irrigated with 30 ml of the aforementioned emulsion of Preparation Example 2 at an active ingredient concentration of 100 ppm. Following irrigation, cucumbers (variety: Sagami Hanjiro) were planted in the soil and covered with 20 ml of contaminated soil (containing Pythium ultimum) from above. The cups were then placed in plastic bags and allowed to stand undisturbed for 3 days in a constant temperature room at 25° C. (dark location […]). Next, the plants were removed from the bags and held in a constant temperature room at 25° C. using a light-dark cycle of 12 hours. On day 7 after planting, the ratios of healthy seedlings were compared between an untreated group and treated group to calculate control effects (control values).

Row | SMILES | inhibition at 1 ppm (Pythium aphanidermatum) | pest or weed control at 100 µg/mL [1] | pest or weed control at 100 ppm (Pythium ultimum)
1 | CCOC(OCC)C(=O)Nc1cccc(CO/N=C(/c2ccccc2)c2nnnn2C)n1 [a-1] | ≥ 50% | ≥ 70% | ≥ 50%
2 | COC(CC(=O)Nc1cccc(CO/N=C(/c2ccccc2)c2nnnn2C)n1)OC [a-2, (Z)-(1-methyl-1H-tetrazol-5-yl)phenylmethanone-o-[2-(2,2-dimethoxyethanecarbonylamino)pyridin-6-ylmethyl]oxime] | ≥ 50% | ≥ 70% | ≥ 50%
3 | Cn1nnnc1/C(=N\OCc1cccc(NC(=O)C2OCCO2)n1)c1ccccc1 [a-4] | ≥ 50% | ≥ 70% | ≥ 50%
4 | Cn1nnnc1/C(=N\OCc1cccc(NC(=O)C2(C)OCCO2)n1)c1ccccc1 [a-5] | ≥ 50% |  | 
5 | CCOC(CC(=O)Nc1cccc(CO/N=C(/c2ccccc2)c2nnnn2C)n1)OCC [a-6] | ≥ 50% | ≥ 70% | ≥ 50%
6 | Cn1nnnc1/C(=N\OCc1cccc(NC(=O)CC2OCCO2)n1)c1ccccc1 [a-7] | ≥ 50% | ≥ 70% | ≥ 50%
7 | CC(C)OC(OC(C)C)C(=O)Nc1cccc(CO/N=C(/c2ccccc2)c2nnnn2C)n1 [a-8] |  | ≥ 70% | ≥ 50%
8 | CCCOC(OCCC)C(=O)Nc1cccc(CO/N=C(/c2ccccc2)c2nnnn2C)n1 [a-9] | ≥ 50% | ≥ 70% | ≥ 50%
9 | CC1COC(CC(=O)Nc2cccc(CO/N=C(/c3ccccc3)c3nnnn3C)n2)O1 (stereo not shown) [a-10] | ≥ 50% | ≥ 70% | 
10 | CCC1COC(CC(=O)Nc2cccc(CO/N=C(/c3ccccc3)c3nnnn3C)n2)O1 (stereo not shown) [a-11] | ≥ 50% | ≥ 70% | 
11 | CC1OC(CC(=O)Nc2cccc(CO/N=C(/c3ccccc3)c3nnnn3C)n2)OC1C (stereo not shown) [a-12] | ≥ 50% | ≥ 70% | 
12 | CC(C(=O)Nc1cccc(CO/N=C(/c2ccccc2)c2nnnn2C)n1)C1(C)OCCO1 (stereo not shown) [a-13] |  | ≥ 70% | 
13 | Cn1nnnc1/C(=N\OCc1cccc(NC(=O)CC2OCC(C)(C)CO2)n1)c1ccccc1 [a-15] | ≥ 50% | ≥ 70% | 
14 | Cn1nnnc1/C(=N\OCc1cccc(NC(=O)CC2(C)OCCO2)n1)c1ccccc1 [a-16] |  | ≥ 70% | 
15 | COC(CCC(=O)Nc1cccc(CO/N=C(/c2ccccc2)c2nnnn2C)n1)OC [a-17] | ≥ 50% | ≥ 70% | ≥ 50%
16 | CCOC(C)(OCC)C(=O)Nc1cccc(CO/N=C(/c2ccccc2)c2nnnn2C)n1 [a-18] |  | ≥ 70% | ≥ 50%
17 | COC(C)(OC)C(=O)Nc1cccc(CO/N=C(/c2ccccc2)c2nnnn2C)n1 [a-19] | ≥ 50% | ≥ 70% | 
18 | CCOC(OCC)C(C)C(=O)Nc1cccc(CO/N=C(/c2ccccc2)c2nnnn2C)n1 (stereo not shown) [a-20] | ≥ 50% | ≥ 70% | ≥ 50%
19 | CCOC(OCC)C(C)(C)C(=O)Nc1cccc(CO/N=C(/c2ccccc2)c2nnnn2C)n1 [a-21] |  | ≥ 70% | ≥ 50%
20 | CCSC(SCC)C(=O)Nc1cccc(CO/N=C(/c2ccccc2)c2nnnn2C)n1 [a-22] | ≥ 50% | ≥ 70% | ≥ 50%
21 | Cn1nnnc1/C(=N\OCc1cccc(NC(=O)C2SCCCS2)n1)c1ccccc1 [a-23] | ≥ 50% | ≥ 70% | ≥ 50%
22 | Cn1nnnc1/C(=N\OCc1cccc(NC(=O)C2(C)OCCCO2)n1)c1ccccc1 [a-24, (Z)-(1-methyl-1H-tetrazol-5-yl)phenylmethanone-o-[2-(2-methyl-1,3-dioxan-2-yl-carbonylamino)pyridin-6-ylmethyl]oxime] | ≥ 50% | ≥ 70% | 
23 | Cn1nnnc1/C(=N\OCc1cccc(NC(=O)C2(C)OCCCCO2)n1)c1ccccc1 [a-25] | ≥ 50% | ≥ 70% | ≥ 50%
24 | CCOC(SCC)C(=O)Nc1cccc(CO/N=C(/c2ccccc2)c2nnnn2C)n1 (stereo not shown) [a-26] | ≥ 50% | ≥ 70% | ≥ 50%
25 | Cn1nnnc1/C(=N\OCc1cccc(NC(=O)C2(C)OCCCCCO2)n1)c1ccccc1 [a-27] | ≥ 50% | ≥ 70% | ≥ 50%
26 | Cn1nnnc1/C(=N\OCc1cccc(NC(=O)C2(C)OCCOCCO2)n1)c1ccccc1 [a-28] | ≥ 50% | ≥ 70% | ≥ 50%
27 | CCCOC(C)(OCCC)C(=O)Nc1cccc(CO/N=C(/c2ccccc2)c2nnnn2C)n1 [a-29] | ≥ 50% | ≥ 70% | ≥ 50%

Row | SMILES | inhibition at 1 ppm (Pythium aphanidermatum) | pest or weed control at 100 µg/mL [1] | pest or weed control at 100 ppm (Pythium ultimum)
28 | CCOC(C)(OCC(F)(F)F)C(=O)Nc1cccc(CO/N=C(/c2ccccc2)c2nnnn2C)n1 (stereo not shown) [a-30] | ≥ 50% | ≥ 70% | ≥ 50%
29 | CCOC(C)(OCCOC)C(=O)Nc1cccc(CO/N=C(/c2ccccc2)c2nnnn2C)n1 (stereo not shown) [a-31] | ≥ 50% | ≥ 70% | ≥ 50%
30 | COCCOC(C)(OCCOC)C(=O)Nc1cccc(CO/N=C(/c2ccccc2)c2nnnn2C)n1 [a-32] |  | ≥ 70% | 
31 | COCCC(=O)Nc1cccc(CO/N=C(/c2ccccc2)c2nnnn2C)n1 [b-1] | ≥ 50% | ≥ 70% | 
32 | COC(C)C(=O)Nc1cccc(CO/N=C(/c2ccccc2)c2nnnn2C)n1 (stereo not shown) [b-4] | ≥ 50% |  | 
33 | CCOCC(C)(COCC)C(=O)Nc1cccc(CO/N=C(/c2ccccc2)c2nnnn2C)n1 [b-5] | ≥ 50% |  | 
34 | COCCC(C)C(=O)Nc1cccc(CO/N=C(/c2ccccc2)c2nnnn2C)n1 (stereo not shown) [b-9] |  |  | ≥ 50%
35 | COCCCCC(=O)Nc1cccc(CO/N=C(/c2ccccc2)c2nnnn2C)n1 [b-11] |  |  | ≥ 50%
36 | Cn1nnnc1/C(=N\OCc1cccc(NC(=O)OCCC2OCC(C)(C)CO2)n1)c1ccccc1 [c-1] | ≥ 50% | ≥ 70% | ≥ 50%
37 | Cn1nnnc1/C(=N\OCc1cccc(NC(=O)OCC2(C)COCOC2)n1)c1ccccc1 [c-2] | ≥ 50% | ≥ 70% | 
38 | Cn1nnnc1/C(=N\OCc1cccc(NC(=O)OCC2(C)COC(C)(C)OC2)n1)c1ccccc1 [c-3] | ≥ 50% | ≥ 70% | 
39 | Cn1nnnc1/C(=N\OCc1cccc(NC(=O)OC2CCC3(CC2)OCCO3)n1)c1ccccc1 [c-5] | ≥ 50% | ≥ 70% | ≥ 50%
40 | COC(CC(C)OC(=O)Nc1cccc(CO/N=C(/c2ccccc2)c2nnnn2C)n1)OC (stereo not shown) [c-6] | ≥ 50% | ≥ 70% | ≥ 50%
41 | CC(OC(=O)Nc1cccc(CO/N=C(/c2ccccc2)c2nnnn2C)n1)C1OCCCO1 (stereo not shown) [c-11] | ≥ 50% | ≥ 70% | 
42 | Cn1nnnc1/C(=N\OCc1cccc(NC(=O)OC(C)(C)C2OCCCO2)n1)c1ccccc1 [c-12] | ≥ 50% | ≥ 70% | 
43 | CCOC1(OC(=O)Nc2cccc(CO/N=C(/c3ccccc3)c3nnnn3C)n2)CC1 [d-2] |  | ≥ 70% | 
44 | Cn1nnnc1/C(=N\OCc1cccc(NC(=O)OCC2CO2)n1)c1ccccc1 (stereo not drawn) [d-5] |  | ≥ 70% | 
45 | Cn1nnnc1/C(=N\OCc1cccc(NC(=O)OC2(C)CCOCC2)n1)c1ccccc1 [d-6] | ≥ 50% | ≥ 70% | 
46 | Cn1nnnc1/C(=N\OCc1cccc(NC(=O)OC2(C)CCSCC2)n1)c1ccccc1 [d-7] |  | ≥ 70% | 
47 | CCOCCCC(C)(C)OC(=O)Nc1cccc(CO/N=C(/c2ccccc2)c2nnnn2C)n1 [d-9] | ≥ 50% | ≥ 70% | 
48 | COCCC(C)(C)OC(=O)Nc1cccc(CO/N=C(/c2ccccc2)c2nnnn2C)n1 [d-10] |  | ≥ 70% | ≥ 50%
49 | COCCCCOC(=O)Nc1cccc(CO/N=C(/c2ccccc2)c2nnnn2C)n1 [d-11] | ≥ 50% | ≥ 70% | 
50 | COCCCOC(=O)Nc1cccc(CO/N=C(/c2ccccc2)c2nnnn2C)n1 [d-12] | ≥ 50% | ≥ 70% | 
51 | CCOC(OCC)C(=O)Nc1cccc(CO/N=C(/c2cccc(F)c2)c2nnnn2C)n1 [e-1] | ≥ 50% | ≥ 70% | 
52 | CCOC(OCC)C(=O)Nc1cccc(CO/N=C(/c2ccc(F)c(C)c2)c2nnnn2C)n1 [e-2] | ≥ 50% | ≥ 70% | 
53 | CCOC(OCC)C(=O)Nc1ccc(Cl)c(CO/N=C(/c2ccccc2)c2nnnn2C)n1 [e-3] | ≥ 50% | ≥ 70% | 
